Source: US20180244611A1, “Modulators of the Cystic Fibrosis Transmembrane Conductance Regulator Protein and Methods of Use” (AbbVie S.à.r.l., priority 2017, published 2018)

What was measured:
F508delCFTR [1] = target: T1, F508delCFTR (Homo sapiens, UniProt P13569, DEL508-508); assay: Cell Surface Expression-Horse Radish Peroxidase (CSE-HRP) assay, test compound without co-corrector; format: cell-based; details: for Emax: maximum at any tested concentration, normalized to positive control, without co-corrector; for EC50: test compound without co-corrector;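 on Emax: percent of on-plate 2 µM positive control corrector response over DMSO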
T1 construct: expressed in transfected cells; host or cells: CFBE41o- human lung-derived epithelial cells (CFBE41o-F508delCFTR-HRP), doxycycline-inducible
Summary of the method: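 Compound without co-corrector was tested at eight 3-fold concentrations, top 20 μM, for 18-24 h at 33° C on doxycycline-induced (0.5 μg/mL, 72 h) CFBE41o- F508delCFTR-HRP cells. After DPBS washes, luminol luminescence gave % activity relative to on-plate positive control minus DMSO; EC50 came from triplicate-plate sigmoidal fitting.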

F508delCFTR [2] = target: T1, F508delCFTR; assay: Cell Surface Expression-Horse Radish Peroxidase (CSE-HRP) assay, test compound with co-corrector; format: cell-based; details: with 2 μM co-corrector; for Maximum % activity (with co-corrector): maximum at any tested concentration, normalized to positive control;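 on Maximum % activity (with co-corrector): percent of 2 µM positive control corrector over DMSO; co-corrector is that same compound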
Summary of the method: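 Surface-expression read-out: luminol luminescence from an HRP tag in the fourth exofacial loop of F508delCFTR, in doxycycline-induced (0.5 μg/mL, 72 h) CFBE41o- cells. Compound plus 2 μM co-corrector added for 18-24 h at 33° C., 8-point 3-fold series up to 20 μM. EC50 from a sigmoidal fit with variable Hill slope, normalised to positive control, triplicate plates.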

T1 sequence (P13569 with tags, fused parts or gaps DEL508-508): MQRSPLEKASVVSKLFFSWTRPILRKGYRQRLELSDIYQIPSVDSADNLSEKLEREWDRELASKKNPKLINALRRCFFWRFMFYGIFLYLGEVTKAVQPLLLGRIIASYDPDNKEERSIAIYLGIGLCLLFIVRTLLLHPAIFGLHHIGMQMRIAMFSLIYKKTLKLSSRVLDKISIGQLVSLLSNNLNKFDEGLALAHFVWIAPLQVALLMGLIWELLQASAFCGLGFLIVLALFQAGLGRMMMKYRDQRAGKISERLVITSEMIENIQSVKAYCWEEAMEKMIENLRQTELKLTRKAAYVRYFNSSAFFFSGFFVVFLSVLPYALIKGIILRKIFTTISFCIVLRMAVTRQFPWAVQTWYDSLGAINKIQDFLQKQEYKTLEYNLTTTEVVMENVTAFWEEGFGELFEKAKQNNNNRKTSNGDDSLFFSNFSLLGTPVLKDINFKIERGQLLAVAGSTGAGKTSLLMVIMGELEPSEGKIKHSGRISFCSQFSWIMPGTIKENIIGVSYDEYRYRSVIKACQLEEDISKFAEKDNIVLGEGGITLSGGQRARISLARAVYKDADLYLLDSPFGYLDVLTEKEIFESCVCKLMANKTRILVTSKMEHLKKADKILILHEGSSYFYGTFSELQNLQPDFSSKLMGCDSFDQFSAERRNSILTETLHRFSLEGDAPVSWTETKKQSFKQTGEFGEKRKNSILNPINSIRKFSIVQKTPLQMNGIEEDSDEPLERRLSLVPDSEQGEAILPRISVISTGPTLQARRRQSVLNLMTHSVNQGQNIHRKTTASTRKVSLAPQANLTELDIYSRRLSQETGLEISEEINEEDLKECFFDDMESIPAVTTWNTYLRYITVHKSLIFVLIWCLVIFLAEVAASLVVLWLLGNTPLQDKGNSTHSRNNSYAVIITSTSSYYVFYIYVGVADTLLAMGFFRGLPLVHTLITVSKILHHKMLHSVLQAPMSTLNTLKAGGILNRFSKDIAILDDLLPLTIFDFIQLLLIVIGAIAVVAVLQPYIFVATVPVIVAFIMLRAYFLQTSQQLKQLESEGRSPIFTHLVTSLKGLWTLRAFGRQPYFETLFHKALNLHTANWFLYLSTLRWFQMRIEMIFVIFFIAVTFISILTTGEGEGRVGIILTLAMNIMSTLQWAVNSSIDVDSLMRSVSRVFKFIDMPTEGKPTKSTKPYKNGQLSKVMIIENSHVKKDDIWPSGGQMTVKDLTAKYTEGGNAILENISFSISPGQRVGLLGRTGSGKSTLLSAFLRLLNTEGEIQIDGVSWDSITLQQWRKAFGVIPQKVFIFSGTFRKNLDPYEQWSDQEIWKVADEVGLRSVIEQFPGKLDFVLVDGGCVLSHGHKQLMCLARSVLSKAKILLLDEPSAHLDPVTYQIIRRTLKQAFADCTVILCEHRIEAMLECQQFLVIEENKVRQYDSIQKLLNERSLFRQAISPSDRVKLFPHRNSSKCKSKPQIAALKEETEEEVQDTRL

Row | Emax (F508delCFTR [1]) [%] | EC50 (F508delCFTR [1]) [µM] | Maximum % activity (with co-corrector) (F508delCFTR [2]) | EC50 (F508delCFTR [2]) [µM] | SMILES
1 | < 50 | ≥ 10 | + (<150) | ≥ 10 | COc1cccc2c1CCC2C(=O)NS(=O)(=O)c1ccc(NC(=O)CC(C)=O)cc1 (stereo not drawn) [III-36]
2 | < 50 | ≥ 10 | + (<150) | ≥ 10 | COc1cccc2c1CCC2C(=O)NS(=O)(=O)c1ccc(Cl)cc1Cl (stereo not drawn) [III-37]
3 | < 50 | ≥ 10 | ++ (≥150 and <350) | 3 to 10 | COc1cccc2c1CCC2C(=O)NS(=O)(=O)c1cc(C)c(N)cc1Cl (stereo not drawn) [III-38]
4 | < 50 | ≥ 10 | + (<150) | ≥ 10 | COc1cccc2c1CCC2C(=O)NS(=O)(=O)c1cc(C)ccc1Cl (stereo not drawn) [III-39]
5 | < 50 | ≥ 10 | + (<150) | ≥ 10 | COc1cccc2c1CCC2C(=O)NS(=O)(=O)c1cc([N+](=O)[O-])ccc1Cl (stereo not drawn) [III-40]
6 | < 50 | ≥ 10 | + (<150) | ≥ 10 | COc1cccc2c1CCC2C(=O)NS(=O)(=O)c1ccc(NC(C)=O)cc1 (stereo not drawn) [III-41]
7 | < 50 | ≥ 10 | + (<150) | ≥ 10 | COc1cccc2c1CCC2C(=O)NS(=O)(=O)c1ccc(NC(C)=O)cc1Cl (stereo not drawn) [III-42]
8 | < 50 | ≥ 10 | + (<150) | ≥ 10 | CCCC(=O)Nc1ccc(S(=O)(=O)NC(=O)C2CCc3c(OC)cccc32)cc1 (stereo not drawn) [III-43]
9 | < 50 | ≥ 10 | + (<150) | ≥ 10 | COc1cccc2c1CCC2C(=O)NS(=O)(=O)c1c(C)nn(C)c1Cl (stereo not drawn) [III-44]
10 | < 50 | ≥ 10 | + (<150) | ≥ 10 | COc1cccc2c1CCC2C(=O)NS(=O)(=O)c1c(C)nc(O)nc1O (stereo not drawn) [III-45]
11 | < 50 | ≥ 10 | + (<150) | ≥ 10 | COc1cccc2c1CCC2C(=O)NS(=O)(=O)c1ccc(C#N)cc1 (stereo not drawn) [III-46]
12 | < 50 | ≥ 10 | + (<150) | ≥ 10 | COc1cccc2c1CCC2C(=O)NS(=O)(=O)c1ccc2oc(=O)ccc2c1 (stereo not drawn) [III-47]
13 | < 50 | ≥ 10 | + (<150) | ≥ 10 | CCOC(=O)c1ccc(S(=O)(=O)NC(=O)C2CCc3c(OC)cccc32)cc1 (stereo not drawn) [III-48]
14 | < 50 | ≥ 10 | ++ (≥150 and <350) | 3 to 10 | COc1cccc2c1CCC2C(=O)NS(=O)(=O)c1ccc(C)c([N+](=O)[O-])c1C (stereo not drawn) [III-49]
15 | < 50 | ≥ 10 | + (<150) | ≥ 10 | COc1cccc2c1CCC2C(=O)NS(=O)(=O)c1cc(C(=O)Nc2c(C)cccc2C)c(O)cc1Cl (stereo not drawn) [III-50]
16 | < 50 | ≥ 10 | + (<150) | ≥ 10 | COc1cccc2c1CCC2C(=O)NS(=O)(=O)c1c(C)nn(CCCl)c1C (stereo not drawn) [III-51]
17 | < 50 | ≥ 10 | + (<150) | ≥ 10 | CCN1CCC[C@H]1CNC(=O)c1cc(S(=O)(=O)NC(=O)C2CCc3c(OC)cccc32)ccc1OC (stereo partly drawn) [III-52]
18 | < 50 | ≥ 10 | + (<150) | ≥ 10 | CCOc1ccc2nc(S(=O)(=O)NC(=O)C3CCc4c(OC)cccc43)sc2c1 (stereo not drawn) [III-53]
19 | < 50 | ≥ 10 | + (<150) | ≥ 10 | CCCCCC(=O)c1ccc(S(=O)(=O)NC(=O)C2CCc3c(OC)cccc32)cc1 (stereo not drawn) [III-54]
20 | < 50 | ≥ 10 | + (<150) | 3 to 10 | COc1cccc2c1CCC2C(=O)NS(=O)(=O)c1ccc(N2CCN(CC[C@@H]3OCCc4ccccc43)CC2)cc1 (stereo partly drawn) [III-55]
21 | 50 to 150 | 3 to 10 | +++ (≥350) | 3 to 10 | COc1cccc2c1CCC2C(=O)NS(=O)(=O)c1ccccc1C(=O)OC(C)C (stereo not drawn) [III-56]
22 | < 50 | ≥ 10 | + (<150) | ≥ 10 | COc1cccc2c1CCC2C(=O)NS(=O)(=O)c1ccc(NCCC(C)(C)O)c([N+](=O)[O-])c1 (stereo not drawn) [III-57]
23 | < 50 | 3 to 10 | ++ (≥150 and <350) | 3 to 10 | COc1cccc2c1CCC2C(=O)NS(=O)(=O)c1cc(-c2nc3c([nH]2)c(=O)n(C)c(=O)n3C)ccc1Cl (stereo not drawn) [III-58]

Row | Emax (F508delCFTR [1]) [%] | EC50 (F508delCFTR [1]) [µM] | Maximum % activity (with co-corrector) (F508delCFTR [2]) | EC50 (F508delCFTR [2]) [µM] | SMILES
24 | < 50 | ≥ 10 | + (<150) | ≥ 10 | COc1cccc2c1CCC2C(=O)NS(=O)(=O)c1nc2c(c(=O)n(C)c(=O)n2C)n1Cc1ccc(Cl)cc1 (stereo not drawn) [III-59]
25 | < 50 | ≥ 10 | + (<150) | ≥ 10 | COc1cccc2c1CCC2C(=O)NS(=O)(=O)c1nc2c(=O)n(C)c(=O)n(C)c2n1Cc1ccccc1 (stereo not drawn) [III-60]
26 | < 50 | ≥ 10 | + (<150) | ≥ 10 | COc1cccc2c1CCC2C(=O)NS(=O)(=O)c1ccc(CN(C)C)cc1 (stereo not drawn) [III-61]
27 | < 50 | ≥ 10 | + (<150) | 3 to 10 | COc1cccc2c1CCC2C(=O)NS(=O)(=O)c1cccc(F)c1C#N (stereo not drawn) [III-62]
28 | < 50 | ≥ 10 | + (<150) | ≥ 10 | COc1cccc2c1CCC2C(=O)NS(=O)(=O)c1ccc(O)c([N+](=O)[O-])c1 (stereo not drawn) [III-63]
29 | < 50 | ≥ 10 | + (<150) | ≥ 10 | COc1cccc2c1CCC2C(=O)NS(=O)(=O)c1cccc(C#N)c1 (stereo not drawn) [III-64]
30 | < 50 | ≥ 10 | + (<150) | ≥ 10 | COc1cccc2c1CCC2C(=O)NS(=O)(=O)c1cncc(Br)c1 (stereo not drawn) [III-65]
31 | < 50 | ≥ 10 | + (<150) | ≥ 10 | COc1cccc2c1CCC2C(=O)NS(=O)(=O)c1ccc(O)nc1 (stereo not drawn) [III-66]
32 | < 50 | ≥ 10 | + (<150) | ≥ 10 | COc1cccc2c1CCC2C(=O)NS(=O)(=O)c1c(C(=O)OC(C)(C)C)c(C)nn1C (stereo not drawn) [III-68]
33 | < 50 | ≥ 10 | + (<150) | ≥ 10 | COc1cccc2c1CCC2C(=O)NS(=O)(=O)c1c(CO)c(C)nn1C (stereo not drawn) [III-69]
34 | < 50 | ≥ 10 | + (<150) | ≥ 10 | COc1cccc2c1CCC2C(=O)NS(=O)(=O)c1cccc(Cl)c1F (stereo not drawn) [III-70]
35 | < 50 | ≥ 10 | ++ (≥150 and <350) | 3 to 10 | COc1cccc2c1CCC2C(=O)NS(=O)(=O)c1c(F)cccc1F (stereo not drawn) [III-71]
36 | < 50 | ≥ 10 | + (<150) | ≥ 10 | COc1ccc2c(c1OC)CCC2C(=O)NS(=O)(=O)c1ccccc1C (stereo not drawn) [III-72]
37 | < 50 | ≥ 10 | + (<150) | ≥ 10 | COc1cccc2c1CCC2C(=O)NS(=O)(=O)c1cc(Cl)ccc1F (stereo not drawn) [III-73]
38 | < 50 | ≥ 10 | + (<150) | ≥ 10 | COc1cccc2c1CCC2C(=O)NS(=O)(=O)c1cc(F)ccc1F (stereo not drawn) [III-74]
39 | < 50 | ≥ 10 | + (<150) | ≥ 10 | COc1cccc2c1CCC2C(=O)NS(=O)(=O)c1cc(F)ccc1Cl (stereo not drawn) [III-75]
40 | < 50 | ≥ 10 | + (<150) | ≥ 10 | COc1cccc2c1CCC2C(=O)NS(=O)(=O)c1c(Cl)cccc1Cl (stereo not drawn) [III-76]
41 | < 50 | ≥ 10 | + (<150) | ≥ 10 | COc1cccc2c1CCC2C(=O)NS(=O)(=O)c1ccc(F)cc1F (stereo not drawn) [III-77]
42 | < 50 | ≥ 10 | + (<150) | ≥ 10 | COCCn1cc(S(=O)(=O)NC(=O)C2CCc3c(OC)cccc32)cn1 (stereo not drawn) [III-78]
43 | < 50 | ≥ 10 | + (<150) | ≥ 10 | COc1cccc2c1CCC2C(=O)NS(=O)(=O)c1c(C)noc1C (stereo not drawn) [III-79]
44 | < 50 | ≥ 10 | + (<150) | ≥ 10 | COc1cccc2c1CCC2C(=O)NS(=O)(=O)c1sc(C)nc1C (stereo not drawn) [III-80]
45 | < 50 | ≥ 10 | + (<150) | ≥ 10 | COc1cccc2c1CCC2C(=O)NS(=O)(=O)c1cccnc1 (stereo not drawn) [III-81]
